Test results from PubChem BioAssay AID179 (DTP/NCI, 2004).
“And” between values parts separate entries of the source, which are not always exact repeats. Identical values can stand only once. The source made the active and inactive calls.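 How the source made its calls: active means compounds giving half or more protection of infected cells from virus-caused growth loss, again on retest; inactive means the rest.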 Where a SMILES comes first, the peptide text is derived from it.

Tested on: CEM cells HIV-1 protection, formazan growth assay
Test: NCI AIDS Antiviral Assay
Settings: for IC50: measured here: growth of uninfected CEM cells
Summary of the method: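 Protection of CEM cells against HIV-1 was scored from cell growth (soluble formazan) across five concentrations, with parallel uninfected cells. Lack of protection may reflect toxicity.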

SMILES | EC50 [µM] | IC50 | outcome
O=[N+]([O-])c1ccccc1N=Nc1c(O)[nH]c2ccc(S(=O)(=O)O)cc12 | > 200 | > 200 µM | –
COc1ccc(OC)c(-c2cn3c(n2)sc2ccccc23)c1 | > 200 | 50.1 µM | –
FC(F)(Oc1ccc2oc3ccccc3c2c1)c1nc2ccccc2o1 | > 200 | 33.9 µM | –
OCCNNCCO | > 200 | > 200 µM | –
BrC(=C(c1ccc(OC2CCCCO2)cc1)c1ccc(OC2CCCCO2)cc1)c1ccccc1 (configuration not stated) | 70.8 | > 200 µM | –
CC(C1=C(O)c2ccccc2C(=O)C1=O)C1=C(O)c2ccccc2C(=O)C1=O | > 200 | 50.1 µM | –
CCOC(=O)c1c(NC(=O)c2ccccc2)sc2c(=O)oc(-c3ccccc3)nc12 | > 24 | > 24 µM | –
O=C1CNc2cc(N3CCN(c4cccc(C(F)(F)F)c4)CC3)ccc2N1 | > 200 | 75.9 µM | –
O=C1c2ccccc2C(=O)c2c(Nc3cccc4c3C(=O)c3ccccc3C4=O)cccc21 | > 200 | > 200 µM | –
CC(=O)OC(C(=O)NNC(=O)OC(C)(C)C)c1ccccc1 (configuration not stated) | > 200 | > 200 µM | –
COc1cc(Nc2nc3ccccc3nc2-c2cccs2)cc(OC)c1OC | > 25.1 | 21.9 µM | –
CC(=O)n1c(=S)n(C(C)=O)c2ccccc21 | > 200 | > 200 µM | –
COc1cc(OC)c2c(O)c3c(c(-c4ccc5cc6c(c(O)c5c4O)C(=O)CC(C)(O)C6)c2c1)CC(C)OC3C (configuration not stated) | – | – | inactive
O=C1CC2C(=O)C1C(C(=O)O)C2C(=O)O (configuration not stated) | > 1170 | > 1170 µM | –
CCOC1CN(C)C(=Nc2cccc3ccccc23)S1 (configuration not stated) | 4.9 | 148 µM | –
Clc1ccc(/C=N/N=C/c2ccc(Cl)cc2)cc1 | – | – | inactive
COc1cccc(-c2cc(C(=O)Nc3ccc(Cl)cc3)nc(N)n2)c1 | > 72.4 | 52.5 µM | –
COc1ccc(C2(O)C(S(=O)(=O)c3ccc(C)cc3)=Cc3ccc(OC)cc32)cc1 (configuration not stated) | > 200 | > 200 µM | –
O=C(CCN1CCCC1)c1ccc(Oc2ccc(F)cc2)cc1 | > 200 | 110 µM | –
O=c1[nH]c(Nc2cccc(Cl)c2)nc2nc[nH]c12 | > 200 | 151 µM | –
Cn1c(Cl)cn2c3nc4ccccc4nc3c(=O)c(C#N)c12 | – | – | inactive
CC1(C)OC2OC3C(I)CN(C(=O)OCc4ccccc4)C3C2O1 (configuration not stated) | > 200 | 110 µM | –

SMILES | EC50 [µM] | IC50 | outcome
O=C(c1c(O)cc(O)cc1O)C1Cc2ccccc21 (configuration not stated) | – | – | inactive
O=C(O)C1CCC(c2ccc(F)cc2)=N1 (configuration not stated) | > 200 | > 200 µM | –
CCCC(=O)C1=C(O)C(Cc2c(O)c(C)c(O)c(C(=O)CCC)c2O)=C(O)C(C)(C)C1=O | > 200 | 10.7 µM | –
O=C1c2ccccc2C(=O)N1C/C=N/NS(=O)(=O)c1cccc([N+](=O)[O-])c1 | > 646 | > 646 µM | –
O=C(NC/C=C/Br)Nc1cnc2ccccc2c1 | > 200 | 151 µM | –
O=c1[nH]c(=O)n(C2CC(O)C(CO)O2)cc1OC/C=C/Cc1ccccc1 (configuration not stated) | > 200 | > 200 µM | –
CC(=O)N(C)C(c1ccccc1)(c1ccccc1)c1ccccc1 | > 200 | 35.5 µM | –
C[C@]12CC(C#N)C(=O)C(O)=C1CC[C@@H]1C2CC[C@@]2(C)C1CC[C@@H]2O (some centres not stated) | – | – | inactive
Cc1ccc(C)c(NC(=O)/C(=N\NC(N)=S)C(C#N)c2ccccc2)c1 (configuration not stated) | > 19.5 | > 19.5 µM | –
COc1cc(-c2cc(=O)c3cc4c(=O)cc(-c5cc(OC)c(OC)c(OC)c5)oc4cc3o2)cc(OC)c1OC | > 100 | > 100 µM | –
CC[C@H]1CN2CCc3cc(OC)c(OC)cc3[C@@H]2C[C@@H]1C[C@H]1NCCc2c1[nH]c1ccc(O)cc21 | – | – | inactive
N#Cc1nc(Nc2cccc3ccccc23)sc1N | > 135 | 60.3 µM | –
Cc1nc(C)c(N2CCNCC2)c(=O)[nH]1 | – | – | inactive
COc1ccc(/C(C)=N\NS(=O)(=O)c2ccc(NC(C)=O)cc2)cc1 | > 182 | > 182 µM | –
N#Cc1ccc(C(C2C(=O)NC(=O)NC2=O)C2C(=O)NC(=O)NC2=O)cc1 | > 70.8 | > 70.8 µM | –
O=C(CCC(=O)Nc1ccc(Cl)c(Cl)c1)Cc1nc2ccccc2o1 | > 182 | > 182 µM | –
CCOC(=O)CNC1C(NC(C)=O)C(OC)OC2COC(c3ccccc3)OC21 (configuration not stated) | – | – | inactive
CC(C)Oc1nc(N2CCNCC2)nc2c1CCC2 | > 200 | 39.8 µM | –
Brc1ccc2[nH]c3nc(N/N=C/c4cccs4)nnc3c2c1 | > 200 | > 200 µM | –
O=C(CC(NC(=O)C(F)(F)F)C(=O)O)OCc1ccccc1 (configuration not stated) | > 200 | > 200 µM | –
O=S(=O)(CCC[C@H]1[C@@H](CCOCc2ccccc2)C2CCCN1O2)c1ccccc1 (some centres not stated) | > 200 | 95.5 µM | –
CC1(C)O[C@@H]([C@@H](O)[C@H](O)C2SCCCS2)[C@@H](CO)O1 | > 200 | > 200 µM | –

SMILES | EC50 [µM] | IC50 | outcome
CC(=O)OC1COC(n2c(N)c(C#N)c(-c3ccccc3)c(C#N)c2=S)C(OC(C)=O)C1OC(C)=O (configuration not stated) | > 200 | 33.9 µM and 36.3 µM | –
Cc1cc(C)nc(NC(=O)Nc2ccccc2)c1 | > 200 | > 200 µM | –
O=C(c1ccco1)N(C(=S)OCc1ccccn1)c1ccccc1 | > 200 | 105 µM | –
COc1ccc(-c2cc(=O)cc(C(N)=O)o2)cc1 | > 200 | > 200 µM | –
CCCCCCCCO/N=C\c1c2c(O)c3c(O)c(C)c4c(c3c1O)C(=O)C(C)(O/C=C\C(OC)C(C)C(OC(C)=O)C(C)C(O)C(C)C(O)C(C)/C=C\C=C(\C)C(=O)N2)O4 (configuration not stated) | > 200 | 3.89 µM | –
COC(=O)C(=O)/C=C(/O)c1ccc(OC)cc1 | > 200 | > 200 µM | –
CC1=NN(C(=O)c2ccc(Cl)cc2)C(=O)/C1=C/c1ccc(Cl)cc1 | > 10.5 | > 10.5 µM | –
O=C1c2cccc3cc([N+](=O)[O-])cc(c23)C(=O)N1O | > 200 | 12 µM | –
COc1nc(NC2OC(COC(C)=O)C(OC(C)=O)C(OC(C)=O)C2OC(C)=O)c(-c2csc(N)n2)c(=O)n1C (configuration not stated) | > 6.17 | > 6.17 µM | –
CC(SCCCCCCCCCCCCSC(C)C(=O)O)C(=O)O (configuration not stated) | > 79.4 | > 79.4 µM | –
CN(C)Cc1cc(C23CC4CC(CC(C4)C2)C3)cc(-c2ccccc2)c1O | – | – | inactive
CCOP(=O)(OCC)/C(C#N)=C/c1nccn1C | – | – | inactive
CCCCCCCCCCCCCCCCNc1ccn(C2OC(COP(=O)(O)OC3CC(n4cc(C)c(=O)[nH]c4=O)OC3CO)C(O)C2O)c(=O)n1 (configuration not stated) | > 200 | 19.1 µM | –
O=C(O)C1=CCCc2ccc3ccccc3c21 | – | – | inactive
O=c1[nH]c2ccccc2nc1/C=C/NC(=S)Nc1ccccc1 | > 200 | > 200 µM | –
CC(C)CC(NC(=O)C(Cc1ccc(O)cc1)NC(=O)C(CO)NC(=O)C(C)NC(=O)C(CO)NC(=O)C(CCC(=O)O)NC(=O)C(NC(=O)C(N)CCC(=O)O)C(C)C)C(=O)NC(CCCN=C(N)N)C(=O)NC(CCCCN)C(=O)O (configuration not stated) (H-EVESASYLRK-OH; configuration not given here) | – | – | inactive
CN1C2CC(=O)CC1[C@@H]1OC(c3ccccc3)O[C@H]21 (some centres not stated) | > 200 | > 200 µM | –
S=C(NNc1ccccc1Oc1ccccc1)NNc1ccccc1Oc1ccccc1 | > 100 | > 100 µM | –
CCOc1cccc2ccc[n+](CC)c12 | > 251 | 25.1 µM | –
CCOP(=O)(OCC)/C(=C\n1ccc(=O)[nH]c1=S)C(=O)OC | > 200 | > 200 µM | –
O=c1oc2ccccc2[n+]([O-])c1-c1ccccc1 | > 1050 | > 1050 µM | –
Fc1ccc(CN2COc3c(ccc4cccnc34)C2)cc1 | > 200 | 34.7 µM | –

SMILES | EC50 [µM] | IC50 | outcome
CCSC1=N/C(=C\c2ccco2)C(Nc2ccc(C)cc2)=N1 | > 50.1 | > 50.1 µM | –
COc1cc(C)cc2c(-c3c(OC(C)=O)cc(OC(C)=O)c4c3C[C@H](C)N(C(C)=O)[C@H]4C)cc(-c3cc(-c4c(OC(C)=O)cc(OC(C)=O)c5c4C[C@H](C)N(C(C)=O)[C@H]5C)c4cc(C)cc(OC)c4c3O)c(O)c12 | > 200 | 40.7 µM | –
Nc1ccccc1Sc1ccc(Cl)cc1 | – | – | inactive
Cn1c2c(c(=O)n(C)c1=O)CS(=O)c1ccccc1N2 (configuration not stated) | > 309 | 234 µM | –
CCN(CC)CC(C(=O)Nc1c(C)cccc1C)/C(C)=N\NC(=O)c1ccncc1 (configuration not stated) | > 33.1 | > 33.1 µM | –
Cc1ccc(NC(=O)CCc2nc(N)nc(N)c2-c2ccccc2)cc1C | > 692 | > 692 µM | –
CP1(=S)CC(Cl)=C2CCCCC21 (configuration not stated) | – | – | inactive
O=C(Nc1ccc(C2=NCCN2)cc1)Nc1cccc(C(=O)Nc2ccc(C3=NCCN3)cc2)c1 | 12.9 | 74.1 µM | –
COc1cc2oc(-c3ccc(O)cc3O)c(CC=C(C)C)c(=O)c2c(O)c1/C=C/C(C)C | > 200 | 4.79 µM | –
S=C1N(c2ccc(Cl)cc2)C2=C(N=Nc3ccccc3)C(=Nc3ccccc3S2)N1c1ccccn1 | > 50.1 | 10 µM | –
O=S(=O)(CCn1c(Sc2ccccc2)c(Sc2ccccc2)c2ccccc21)c1ccccc1 | > 200 | > 200 µM | –
Cc1cc(Cl)ccc1NC(=O)C(=O)Cc1nc2ccc(C(=O)c3ccccc3)cc2[nH]c1=O | > 77.6 | > 77.6 µM | –
N#CC1=C(N)CCC(C#N)(c2ccccc2)C1 (configuration not stated) | > 200 | > 200 µM | –
Oc1ccccc1C=Nc1ccc(SSc2ccc(N=Cc3ccccc3O)cc2)cc1 | > 200 | 27.5 µM | –
CC1(C)C2CCC3=C(CCC4(C)C5C[C@](C)(C(=O)O)CC[C@]5(C)CC[C@]34C)[C@@]2(C)CC[C@@H]1O (some centres not stated) | 24 | 81.3 µM | –
COc1cc(C[C@@]2(O)C(=O)OCC2Cc2ccc(OC)c(OC)c2)ccc1O (some centres not stated) | > 200 | 36.3 µM | –
ClCc1nn(-c2ccccc2)c(CCl)c1CCl | > 200 | 1.23 µM | –
CCN(CC)CC(O)CNc1c2ccc([N+](=O)[O-])cc2nc2cc(OC)c(OC)cc12 (configuration not stated) | – | – | inactive
Cc1cc2c(=O)[nH]nc(N)c2c(N)n1 | > 200 | > 200 µM | –
c1ccc(-c2nn3c(-c4ccccc4)nnc3o2)cc1 | > 200 | 40.7 µM | –
